SMILES strings stand for the structures.

One data set has as its system blood pressure. In words: Example 1: blood pressure response to intra-arterial Ach after vaginal oxybutynin gel. The format is in vivo, rabbit. An excerpt: 16 mature female New Zealand white rabbits were separated into two groups of eight. The rabbits in Group 1 received a high dose oxybutynin formulations; and the rabbits in Group 2 received a low dose oxybutynin formulation. For the high dose, 3 grams (g) of oxybutynin HCl were suspended in 6 g of gel (yielding a concentration of 0.5 g Oxybutynin/g gel) and 3 g of the formulation were placed in the vagina. For the low dose, 0.3 g of oxybutynin HCl were suspended in 6 g of gel (yielding a concentration of 0.05 g Oxybutynin/g gel), and 3 g of the formulation were placed in the vagina.
Each rabbit was sedated with an intramuscular injection of ketamine-xylazine ((25 mg ketamine+6 mg xylazine)/kg rabbit) and anesthesia was maintained by isoflurane. After anesthesia, the right external carotid artery was cannulated for blood pressure monitoring. A polyethylene catheter (Intramedic) with an outer diameter of 0.043 inches was inserted through the rabbit's right femoral artery until it reached the lower abdominal aorta (approximately 0.5 cm above the bifurcation of the aorta). A heparizined saline (30 iu/mL) filled polyethylene catheter was used for intra-arterial administration of drugs. To facilitate the delivery of the maximum amount of drugs to the urinary bladder, the rabbit's left femoral artery was ligated.
Acetylcholine (Ach), a chemical that causes the bladder muscle (detrusor) to squeeze or contract, was injected through the intra-arterial polyethylene catheter in a volume of 0.31-0.39 mL (i.e., 0.1 mL/kg of rabbit), followed by 0.2 mL of heparinized saline. Change of intravesical pressure following the administration of Ach (10^−6 mol/kg) was monitored by the pressure transducer and recorded on a Grass model 7D polygraph. A 10-minute interval passed between Ach administrations, and three flushes of normal saline, in an amount of 0.1 ml/kg of rabbit, were administered. Three responses to Ach were performed at 10-minute intervals to ensure consistent responses.
After the third Ach administration, the application of the oxybutynin containing gel was administered to the vagina and the responses to Ach were determined at 15-minute intervals for 2 hours. When the response to Ach was reduced, then the time period was extended to 4 hours. At the end of the experiment, a second cystometric curve was generated.

The test system of a further data set is urgency incontinence. In words: Example 4: clinical case studies, urgency incontinence / urinary frequency, urgency and nocturia. The conditions noted are these: person. The format is in vivo, human. The protocol: A person developed urgency incontinence two years after their laparoscopically assisted vaginal hysterectomy. […] However they experienced side effects, such as dry mouth, from the drug. Two weeks later, they started applying oxybutynin (5 mg) into the vagina at bed time, instead of Ditropan XL. […] The patient used vaginal oxybutynin (5 mg) at bed time for 6 months.
A person with a history of chronic pelvic pain and multiple surgical procedures, including pain mapping under conscious sedation and repair of occult bilateral inguinal hernias, developed urinary frequency, urgency and nocturia. Their urine analysis and urine culture were negative for signs of urinary tract infection. Their treatment began with vaginal oxybutynin (5 mg) once daily, at bed time, applied into the vagina.

Where [1] appears, read: 5 mg into the vagina at bed time.
Setting [2] is: 5 mg into the vagina twice daily.
The mark [3] stands for this setting: vaginal 5 mg at bed time for 6 months.

On to `CCN(CC)CC#CCOC(=O)C(O)(c1ccccc1)C1CCCCC1` (centres unmarked) [oxybutynin], for which the “response of the blood pressure to Ach” value with blood pressure (high dose (0.5 g/g gel) vaginal, 15 minutes after administration) is recorded as “clear response”; with blood pressure (high dose (0.5 g/g gel) vaginal, 4 hours after administration), “decreased”; in the data set with blood pressure (vaginally delivered high dose, overall), “without having any significant effects”. The “effect on blood pressure response to Ach” value in the data set with blood pressure (low dose (0.05 g/g gel) vaginal, two out of three experiments) is on record as “no significant effect”. Moreover, the side effects result in the data set with urgency incontinence (setting [1]) was “did not experience any noticeable side effects”; with urgency incontinence (setting [2]) it was “no significant side effects”; in the data set on urgency incontinence (setting [3]), “did not suffer from any side effects”. Moreover, the urgency symptoms entry in the data set on urgency incontinence (setting [1]) was “improved remarkably”. Besides, the improvement of symptoms result with urgency incontinence (setting [2]) was “remarkable improvement”. In the data set on urgency incontinence (setting [3]), the “control of symptoms of urgency incontinence” value is given as “remained effective”. Also, in the data set on urgency incontinence (vaginal 5 mg once daily at bed time), the “improvement of urinary frequency, urgency and nocturia” value is reported as “significant improvement”.

For the origin of these results see US8226972B2, “Vaginal delivery of drugs” (FemmePharma Holding Company, Inc., priority 2001, dated 2012).
